Results published in US11549198B2, “Method of producing non-woven protein fibers” (Rowan University, priority 2017, dated 2023).

Assay: Drug release study of model drugs from corn zein fibers and films in phosphate buffer
Format: physicochemical
Conditions: for n value from the Korsmeyer-Peppas equation of model drug release profile / release percentage at the 15-minute time point: 20 mM phosphate buffer (pH 7.0); for n value from the Korsmeyer-Peppas equation of model drug release profile: up to 96 hours; for release percentage at the 15-minute time point: fibers
Description: Approximately 0.05 g of film or fiber mesh was placed in 50 mL of 20 mM phosphate buffer (pH 7.0). Drug release was done in triplicate under conditions of dynamic flow. At the appropriate time points (15 minutes, 30 minutes, 1 hour, 2 hours, 3 hours, 4 hours, 5 hours, 24 hours, 48 hours, 96 hours), aliquots of solution were removed from the samples. The absorbance of each aliquot was measured at the appropriate wavelength for the corresponding model drug using a SpectraMax i3x Plate Reader (Molecular Devices LLC, Sunnyvale, Calif., USA). Absorbance was related to concentration and the values from the three aliquots were averaged and graphed as a function of time. Upon completion of the study, fibers were extracted from solution via suction filtration and dried overnight. Release profiles were then fit with the Krosmeyer-Peppas release model shown in equation 1: […]
To further investigate the potential effectiveness of the supramolecular systems for transdermal drug delivery, drug release of the model drugs incorporated in either films or fibers was simulated in 0.1% w/v 20 mM phosphate buffer (pH 7.0) for different times. Shown in FIGS. 16A-16B are the normalized release profiles for the fiber and film models, respectively. Data points were normalized based on the amount of drug released at 96 hours. No significant drug release was observed above 96 hours for all samples. […] Alcian blue is a very large molecule (MW 1.3 kDa), so it is reasonable to assume its bulkiness prevents it from being efficiently integrated into the zein structure. […] This can be attributed to the nature of the method used to fabricate the films. The corn zein was exposed to formic acid for a longer period of time during film synthesis than during fiber generation. During this time, the formic acid may have severed some of the hydrogen bonds of the corn zein structure, allowing the integration of the model drug molecules.

SMILES | n value from the Korsmeyer-Peppas equation of model drug release profile (Fiber) | n value from the Korsmeyer-Peppas equation of model drug release profile (Film) | release percentage at the 15-minute time point | release profile at the earlier points (films, in contrast to the fibers)
CN(C)C(SCc1ccc2c(c1)-c1nc-2nc2[n-]c(nc3nc(nc4[n-]c(n1)c1ccc(CSC(N(C)C)=[N+](C)C)cc41)-c1ccc(CSC(N(C)C)=[N+](C)C)cc1-3)c1ccc(CSC(N(C)C)=[N+](C)C)cc21)=[N+](C)C.[Cl-].[Cl-].[Cl-].[Cl-].[Cu+2] [Alcian Blue, alcian blue 8GX] | 0.1104 | 0.1507 | considerably high release percentage | –
CN(C)c1ccc(C(=C2C=CC(=[N+](C)C)C=C2)c2ccc(N(C)C)cc2)cc1 [Crystal Violet, Crystal violet] | 0.353 | 0.1184 | – | –
CO[C@H]1/C=C/O[C@@]2(C)Oc3c(C)c(O)c4c(O)c(c(/C=N/N5CCN(C)CC5)c(O)c4c3C2=O)NC(=O)/C(C)=C\C=C\[C@H](C)[C@H](O)[C@@H](C)[C@@H](O)[C@@H](C)[C@H](OC(C)=O)[C@@H]1C [Rifampin, rifampin] | 0.392 | 0.284 | – | –
O=C1/C(=C2\Nc3ccc(S(=O)(=O)[O-])cc3C2=O)Nc2ccc(S(=O)(=O)[O-])cc21.[Na+].[Na+] [Indigo Carmine, indigo carmine] | 0.1318 | 0.430 | considerably high release percentage | dramatic drop
CCN(CC)c1ccc2c(-c3ccccc3C(=O)O)c3ccc(=[N+](CC)CC)cc-3oc2c1.[Cl-] [Rhodamine B, rhodamine B] | 0.337 | 0.203 | – | –
